From paper PMC8868346, “Novel Series of Dual NRF2 Inducers and Selective MAO-B Inhibitors for the Treatment of Parkinson’s Disease” (Antioxidants, 2022)
Like-named read-outs stand apart in the source and are kept apart here.

What was measured:
NRF2 = NRF2 induction, luciferase activity in AREc32 reporter cells; type: cell-based, human; details: for EC50: Homo sapiens, read-out: CD (µM) NRF2 Induction; for EC50 / CD (µM) NRF2 Induction: AREc32 cells, 24 h, concentration required to double luciferase activity compared to basal; for fold potentiation of NRF2 induction compared to the corresponding -OMe derivative: 11, 12 vs 10, 14, 15 vs 13
Procedure: Cells were used from the third to twelfth passage.
AREc32 cells were stably transfected with the plasmid pGL-8xARE that implements 8 copies of the antioxidant response element (ARE) sequences followed by luciferase reporter gen. Therefore, NRF2 induction can be related to the activation of ARE sequences by measuring luciferase activity in terms of luminescence production. For NRF2 induction experiments, cells were plated in 96 white flat bottom well plates (20,000 cells/well). After 24 h, cells were incubated with selected compounds at the desired concentrations in duplicates for 24 h. The Luciferase Assay System (Promega E1500) was used according to provider protocol and luminescence was quantified in an Orion II microplate luminometer (Berthold, Germany). Fold induction of luciferase activity was normalized to basal conditions. Data were expressed as CD values, which means the concentration needed to duplicate the luciferase activity compared to basal conditions. CD values were calculated from dose–response curves fitted by non-linear regression for each compound after logarithmic transformation of the data using GraphPad Prism 8.0 software.

MAO-B = target: T1, MAO-B (Homo sapiens, UniProt P27338); experiment: MAO-B reversibility assay (pre-incubation times); type: biochemical; details: 0, 15, 30 min pre-incubation at […] IC50
T1 construct: purchased Sigma–Aldrich
T1 sequence (P27338 1-520): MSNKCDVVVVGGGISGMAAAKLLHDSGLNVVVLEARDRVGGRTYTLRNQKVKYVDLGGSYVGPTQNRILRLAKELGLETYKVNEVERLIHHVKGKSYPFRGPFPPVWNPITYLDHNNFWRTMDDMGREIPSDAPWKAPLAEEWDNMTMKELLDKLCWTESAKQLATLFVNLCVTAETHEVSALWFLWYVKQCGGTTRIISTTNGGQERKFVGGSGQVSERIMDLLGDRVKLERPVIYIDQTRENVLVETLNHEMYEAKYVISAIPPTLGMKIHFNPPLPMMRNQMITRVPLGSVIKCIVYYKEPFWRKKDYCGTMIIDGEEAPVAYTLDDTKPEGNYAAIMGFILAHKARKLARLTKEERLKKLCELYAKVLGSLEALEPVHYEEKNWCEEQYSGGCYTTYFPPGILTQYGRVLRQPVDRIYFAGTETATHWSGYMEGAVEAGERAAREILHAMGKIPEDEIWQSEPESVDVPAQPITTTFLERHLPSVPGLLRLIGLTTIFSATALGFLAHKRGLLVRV

SH-SY5Y = details: MTT reduction
Procedure: They were recovered by centrifugation at 800 rpm for 10 min. Cells from the third to twelfth passage were seeded at a density of 80,000 cells/well in 96-well plates for the neuroprotection studies.
(§1) Basal absorbance was set to 100% and results were normalized to basal conditions.
(§2) Cytotoxicity. LD50 values in several cell cultures employed
(§3) Table S2. Cytotoxicity elicited by 10-18 compounds in SH-SY5Y, AREc32 and mixed pr imary glial cultures. Viability was measured as MTT reduction in presence of increasing concentrations of der ivatives. LD50 values were calcula ted from dose-response curves. Data are expr essed as mean ± SEM of at least 3 independent experiments.
(§4) 1.3. PAMPA control compounds (BBB permeability)
(§5) Table S3. Pr ediction of the BBB passive permeability of control compounds

[1] = Oxygen radical absorbance capacity (ORAC) assay; details: Trolox equivalents; AAPH, fluorescein
Procedure: The ORAC test was performed to evaluate the oxygen free radical scavenger capacity of the compounds. […] Compounds at desired concentrations (0.03, 0.1, 0.3, 1, 3, and 10 µM) were diluted in phosphate-buffered saline (PBS; 10 mM, pH 7.4) at 37 °C and placed in a 96 black flat bottom well plate. […] A fluorescence measurement was done first to determine the basal signal. Then, 25 µL of 2, 2′-azobis-amidinopropane dihydrochloride (AAPH) (12 mM final concentration) was quickly added. All samples were measured in duplicates in three different experiments. […] Results were expressed in terms of Trolox equivalents (T.eq.), obtained by plotting net AUC versus compound concentration, then performing linear regression and normalizing slopes of the compounds considering Trolox as reference.

SH-SY5Y cells [2] = experiment: Neuroprotection in SH-SY5Y against 6-hydroxydopamine (MTT); type: cell-based, human; details: 6-OHDA 100 µM; compound 0.1 µM, 24 h pre- and 24 h co-incubation
Procedure: (§6) Cells were seeded at a density of 60,000 cells/well in 96-well transparent plates for 24 h. Then cells were pre-incubated with the corresponding compound at 0.1 μM. After 24 h, the medium was removed and replaced with 1% (v/v) FBS media containing the corresponding compound at 0.1 µM and the selected toxic stimuli, namely a mixture of rotenone and oligomycin A (R/O; 30/10 μM, respectively; Sigma–Aldrich, Spain) or 6-hydroxydopamine (100 µM; Sigma–Aldrich, Spain). […].

hrMAO-A = target: T2, hrMAO-A (Homo sapiens, UniProt P21397); experiment: Inhibition of monoamine oxidase A (Amplex UltraRed, tyramine); type: biochemical
T2 construct: purchased Sigma–Aldrich
T2 sequence (P21397 1-527): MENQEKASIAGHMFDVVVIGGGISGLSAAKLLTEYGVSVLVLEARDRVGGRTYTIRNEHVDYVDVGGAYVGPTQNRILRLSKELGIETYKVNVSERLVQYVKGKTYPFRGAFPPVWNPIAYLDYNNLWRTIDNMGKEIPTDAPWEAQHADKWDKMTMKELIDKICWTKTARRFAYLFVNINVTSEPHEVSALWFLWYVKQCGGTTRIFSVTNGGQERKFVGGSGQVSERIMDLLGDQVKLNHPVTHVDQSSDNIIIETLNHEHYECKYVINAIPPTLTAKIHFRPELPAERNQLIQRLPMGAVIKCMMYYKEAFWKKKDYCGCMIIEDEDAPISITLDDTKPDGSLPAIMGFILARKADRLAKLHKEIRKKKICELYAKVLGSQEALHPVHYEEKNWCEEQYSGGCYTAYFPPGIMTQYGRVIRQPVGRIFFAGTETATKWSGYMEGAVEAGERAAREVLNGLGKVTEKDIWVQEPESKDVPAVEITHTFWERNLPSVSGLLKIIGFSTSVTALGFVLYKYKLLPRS

hrMAO-B = target: T3, hrMAO-B (Homo sapiens, UniProt P27338); experiment: Inhibition of monoamine oxidase B (Amplex UltraRed, tyramine); type: biochemical; details: for Selectivity Index (MAO-A/MAO-B): ratio IC50 MAO-A/IC50 MAO-B
T3 construct: purchased Sigma–Aldrich
T3 sequence (P27338 1-520): T1 sequence (P27338 1-520)

SH-SY5Y cells [3] = experiment: Neuroprotection in SH-SY5Y against rotenone/oligomycin A (MTT); type: cell-based, human; details: compound 0.1 µM, 24 h pre- and 24 h co-incubation
Procedure: as §6

[4] = tested on: blood-brain barrier (passive diffusion); experiment: Blood–brain barrier permeation assay (PAMPA); details: PAMPA, pH 7.4
Procedure: (§7) Briefly, permeability of the compounds was measured at an initial concentration of 100 µM, including positive and negative controls (Supplementary Data; Table S3). […] After 5 min, 180 µL of each compound solution in PBS (10 mM, pH 7.4) was added to determine their ability to pass the membrane (VD). The 96-well acceptor plate (Multiscreen, Millipore Corp., Madrid Spain) was loaded with 180 µL of PBS (VA). Then, the donor filter plate was carefully placed on the acceptor plate to form a sandwich-like system, which was left undisturbed for 4 h at room temperature. After incubation, the donor plate was removed and the absorbance at the maximum absorption wavelength for each compound was recorded in both the acceptor and donor wells (150 µL/well) using a UV plate reader SPECTROstar Nano (BMG Labtech, Ortenberg, Germany). Concentration of the compounds in the donor and acceptor plates and equilibrium concentration were calculated and expressed as permeability (Pe) according the Equation (1). Results are expressed as mean ± standard error of the mean (SEM) of at least three different experiments in duplicate:(1) logPe =log{C×−ln(1−[drug]acceptor/[drug]equilibrium)} where C=(VD×VA/(VD +VA)×Area×Time) .

AREc32 = details: MTT reduction
Procedure: AREc32 cells, shared by CR Wolf, were grown in Dulbecco’s modified Eagle medium (DMEM) with GlutaMAX (Gibco, Invitrogen, Madrid, Spain), supplemented with 10% (v/v) filtrated fetal bovine serum (FBS; Gibco, Invitrogen, Madrid, Spain), 1% of antibiotics penicillin-streptomycin, and geneticin (0.8 mg/mL G418; Gibco, Invitrogen, Madrid, Spain). […] They were recovered by centrifugation at 800 rpm for 10 min. Cells were used from the third to twelfth passage.
as §1, §2, §3, §4, §5

[5] = tested on: Mixed primary glial cultures; experiment: Cytotoxicity in mixed primary glial cultures (MTT); details: MTT reduction
Procedure: Mixed primary glial cultures were obtained from cerebral cortex of 2–5-day-old Sprague–Dawley rats. Blood vessels and meninges were first removed in Hank’s balanced salt solution (HBSS) and then forebrains were dissociated in DMEM/F12 medium. After mechanical dissociation, filtering, and centrifugation at 800 rpm for 10 min, cells were plated at a density of 30,000 cells/well in DMEM/F12 medium with 20% (v/v) FBS and 1% penicillin/streptomycin (10,000 units). […] After 5 days, medium was substituted by DMEM/F12 medium with 10% (v/v) FBS. Cells were cultured for 7–10 days before treatment.
as §1, §2, §3, §4, §5

[6] = tested on: blood-brain barrier (passive diffusion); experiment: in vitro; details: PAMPA, pH 7.4
Procedure: as §7

[7] = Blood–brain barrier permeation assay (PAMPA); details: for PAMPA Prediction: BBB permeability class from Pe
Procedure: as §7

[8] = 30 min pre-incubation, 37 °C, read-out: IC50 MAO-A
[9] = 30 min pre-incubation, 37 °C, read-out: IC50 MAO-B

Row | SMILES | EC50 (NRF2) [µM] | MAO-B inhibition reversibility (MAO-B) | LD50 (µM) SH-SY5Y (SH-SY5Y) [µM] | ORAC (T. eq.) [1] [T. eq.] | 6-OHDA Protection (%) (SH-SY5Y cells [2]) | CD (µM) NRF2 Induction (NRF2) | IC50 (hrMAO-A; [8]) [µM] | IC50 (hrMAO-B; [9]) [µM] | R/O (30/10 µM) Protection (%) (SH-SY5Y cells [3]) | Papp at 4 h, 100 µM [4] [×10⁻⁶ cm/s] | LD50 (µM) AREc32 (AREc32) [µM] | fold potentiation of NRF2 induction compared to the corresponding -OMe derivative (NRF2) [fold] | LD50 (µM) Mixed primary glial cultures [5] [µM] | Papp [6] [×10⁻⁶ cm/s] | IC50 (hrMAO-A) [µM] | IC50 (hrMAO-B) [µM] | PAMPA Prediction [7] | MAO isozyme selectivity (hrMAO-B; MAO-B vs MAO-A) | Selectivity Index (MAO-A/MAO-B) (hrMAO-B) | PAMPA Pe (10^−6 cm s^−1) ([7]; 100 µM, porcine brain lipid, 4 h, PBS pH 7.4)
1 | CC(C)(C)c1cc(O)ccc1O [TBHQ, Tert-Butylhydroquinone, reference compound] | 1.82 ± 0.09 |  |  |  |  |  |  |  |  |  |  |  |  |  |  |  |  |  |  | 
2 | C#CC(=O)NCCc1c[nH]c2ccc(OC(=O)C=Cc3ccccc3)cc12 [Compound 17, 3-(2-Propiolamidoethyl)-1H-indol-5-yl Cinnamate] |  | reversible inhibition | 9.06 ± 0.31 | 2.27 ± 0.08 | 58.4% | no activity | > 100 | 50 ± 2.9 | 49.3 | 3.12 ± 1.2 | < 1 |  |  |  |  |  |  |  |  | 
3 | C#CCNCCc1c[nH]c2ccc(OC(=O)C=Cc3ccccc3)cc12 [Compound 11, 3-(2-(Prop-2-yn-1-ylamino)ethyl)-1H-indol-5-yl Cinnamate] | 1.8 ± 0.28 | reversible inhibition | 16.4 ± 2.32 |  | absence of protection |  |  |  | 48.6 |  | 7.83 ± 1.2 | 7 | 17.8 ± 2.9 | 5.08 ± 1.7 | 43.8 ± 6.5 | 3 ± 0.21 | CNS + (CNS + (high BBB permeability): Pe (10^−6 cm s^−1) > 4.0) |  |  | 
4 | C#CC(=O)NCCc1c[nH]c2ccc(OC)cc12 [Compound 16, N-(2-(5-Methoxy-1H-indol-3-yl)ethyl) Propiolamide] | 1.35 ± 0.12 |  | 4.87 ± 0.60 | 2.67 ± 0.14 | 48.1% |  | > 100 | > 100 | 47.3 | 6.64 ± 1.3 |  |  | 8.81 ± 2.2 |  |  |  | CNS + (CNS + (high BBB permeability): Pe (10^−6 cm s^−1) > 4.0) | not active | at least 2 | 
5 | C#CC(=O)NCCc1c[nH]c2ccc(OC(=O)/C=C/c3ccc(C)cc3)cc12 [Compound 18, 3-(2-Propiolamidoethyl)-1H-indol-5-yl-(E)-3-(p-tolyl) Acrylate] |  |  |  | 1.42 ± 0.13 | 43.8% | no activity | 81.9 ± 5.4 | 13.9 ± 1.2 | 32.1 | 2.04 ± 3.2 | < 1 |  | 1.21 ± 0.24 |  |  |  |  |  | 5.89 | 
6 | C#CCNCCc1c[nH]c2ccc(OC(=O)/C=C/c3ccc(C)cc3)cc12 [Compound 12, 3-(2-(Prop-2-yn-1-ylamino)ethyl)-1H-indol-5-yl-(E)-3-(p-tolyl)acrylate] | 2.99 ± 0.26 |  | 11.6 ± 0.90 |  | absence of protection |  | 59.1 ± 6 | 3.03 ± 0.27 | 53.5 | 1.84 ± 0.48 | 11.1 ± 2.0 | 10 | 7.42 ± 1.3 |  |  |  | CNS − (CNS—(low BBB permeability): Pe (10^−6 cm s^−1) < 2.0) |  |  | low Pe value
7 | Cn1c(=O)c2c(ncn2C)n(C)c1=O [Caffeine, reference compound] |  |  |  |  |  |  |  |  |  |  |  |  |  |  |  |  | CNS - |  |  | 
